Tests used:
Type in all cases: cell-based
S. aureus = assay: Disc diffusion antimicrobial study against S. aureus
Protocol: (§1) Procedure: Medium used for this study was reinforced clostridial Agar (RCA). The medium which was prepared and sterilized in 30 ml vials was poured into the plates inside the chamber and allowed to solidity. The culture was inoculated [0.3 ml/plate] into the plates and spread. After 30 minutes, antibacterial sterile discs [6 mm] were dispensed (2/plate), and 2.5, 5.0, 7.5 and 10 μl of the prepared samples and controls were dispensed onto the discs. The plates were incubated inside the anaerobic chamber at 37° C. for 48 hours duration.
(§2) Antimicrobial studies of Vitex oil against general pathogenic aerobic bacteria such as E. coli and S. aureus were also carried out. E. coli was grown in lactose broth and S. aureus in nutrient broth. The method used was the same as it was followed for P. acnes. Clindac A (Clindamycin phosphate gel 1% w/w) was used as positive control. The clearence zone formed around the discs were measured and expressed in mm.

[1] = system: Propionibacterium acnes ATCC 11827; assay: Direct bioautography on thin layer chromatograms; details: TLC bioautography, P. acnes
Protocol: The antibacterial effects of aqueous, methanolic Vitex agnus castus fruit extract and various extract fractions of different polarities were evaluated by bioautography technique. […] Further fractionation of oil has been done by Silica gel chromatography. Silica gel was been loaded more than half quantity of oil and fraction was collected from mobile phase, hexane, chloroform, 50% chloroform, chloroform, 10% methanol, 50% Methanol and Methanol alone. Active fraction was identified by bioautography technique.
Direct bioautography is the technique used to localize antibacterial activity on a chromatogram. (Lund et al. 1975)
In the present study, the separated fractions of Vitex oil were subjected to Thin Layer Chromatography on silica gel. The solvent system used was hexane: chloroform in 7:3 proportion [FIG. 1]. These chromatograms were dried in the oven at 60° C. for 1 hour to eliminate the traces of solvents. This can be visualized either by spraying the thin layer chromatogram with 5% methanolic sulphuric acid followed by heat drying or under UV light. The plates were taken to the anaerobic chamber where the bioautography experiment was carried out. The medium used was reinforced clostridial agar medium. […]
After incubation, 1-1.2 ml of tetrazolium salt solution [2% concentration] was sprayed as a coloring reagent on the plates. […] The diameter of the zones were measured and expressed in mm.

E. coli = assay: Disc diffusion antimicrobial study against E. coli
Protocol: as §1, §2

With COc1ccc(-c2oc3cc(OC)c(OC)c(O)c3c(=O)c2OC)cc1OC [Artemetin] the MIC (S. aureus; S. aureus) was 1.0%, the zone of inhibition at 0.5 % strength (S. aureus; Staphylococcus aureus, concentration 0.5 % w/v) was 0 mm and the zone of inhibition at 1 % strength (S. aureus; Staphylococcus aureus, concentration 1 % w/v) was 8 mm. For the same compound, the zone of inhibition at 5 % strength (S. aureus; Staphylococcus aureus, concentration 5 % w/v) was 10 mm, the “Antibacterial activity by bioautography (in words)” value [1] was “Clearance zone was exhibited” and the MIC (E. coli; E. coli) was 1.0%. It also gave a zone of inhibition at 0.5 % strength (E. coli; Escherichia coli, concentration 0.5 % w/v) of 0 mm, a zone of inhibition at 1 % strength (E. coli; Escherichia coli, concentration 1 % w/v) of 9 mm and a zone of inhibition at 5 % strength (E. coli; Escherichia coli, concentration 5 % w/v) of 12 mm.

From patent US20060110481A1, “COMPOSITIONS CONTAINING VITEX AGNUS-CASTUS BERRY OIL FOR COSMECEUTICAL APPLICATIONS AND METHOD OF ISOLATION OF THE ACTIVE COMPONENT” (SAMI LABS LIMITED, priority 2004, published 2006)
